Key:
Assay type in all cases: in vivo
[1] = system: wheat (Triticum aestivum); test: Test B pre-/postemergence plant response
From the text: (§1) Seeds of plant species selected from bamyardgrass (Echinochloa crus-galli), kochia (Kochia scoparia), ragweed (common ragweed, Ambrosia elatior), Italian ryegrass (Lolium multiflorum), large (Lg) crabgrass (Digitaria sanguinalis), giant foxtail (Setaria faberii), momingglory (Ipomoea spp.), pigweed (Amaranthus retroflexus), velvetleaf (Abutilon theophrasti), wheat (Triticum aestivum), and corn (Zea mays) were planted into a blend of loam soil and sand and treated preemergence with a directed soil spray using test chemicals formulated in a non-phytotoxic solvent mixture which included a surfactant. At the same time, plants selected from these crop and weed species and also blackgrass (Alopecurus myosuroides), and galium (catchweed bedstraw, Galium aparine) were planted in pots containing the same blend of loam soil and sand and treated with postemergence applications of test chemicals formulated in the same manner. Plants ranged in height from 2 to 10 cm and were in the one- to two-leaf stage for the postemergence treatment. Treated plants and untreated controls were maintained in a greenhouse for approximately 10 days, after which time all treated plants were compared to untreated controls and visually evaluated for injury. Plant response ratings, summarized in Table B, are based on a 0 to 100 scale where 0 is no effect and 100 is complete control. A dash (-) response means no test result.

kochia (Kochia scoparia) = test: Test B pre-/postemergence plant response
From the text: as §1

[2] = system: Italian ryegrass (Lolium multiflorum); test: Test B pre-/postemergence plant response
From the text: as §1

[3] = system: ragweed (common ragweed, Ambrosia elatior); test: Test B pre-/postemergence plant response
From the text: as §1

[4] = system: pigweed (Amaranthus retroflexus); test: Test B pre-/postemergence plant response
From the text: as §1

[5] = system: barnyardgrass (Echinochloa crus-galli); test: Test B pre-/postemergence plant response
From the text: as §1

corn (Zea mays) = test: Test B pre-/postemergence plant response
From the text: as §1

[6] = system: giant foxtail (Setaria faberii); test: Test B pre-/postemergence plant response
From the text: as §1

[7] = system: small-flower umbrella sedge (Cyperus difformis); test: Test C flooded paddy test plant response; settings: Flood, 250 g ai/ha; scale of 0 to 100 where 0 is no effect and 100 is complete control; 13 to 15 days
In short: (§2)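 Flooded-pot format, 3 cm water over soil maintained for the test duration; test compounds dispensed into the water at the 2-leaf stage. Greenhouse holding 13 to 15 days. Plants evaluated visually relative to untreated controls, 0 meaning no effect and 100 complete control.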

[8] = system: ducksalad (Heteranthera limosa); test: Test C flooded paddy test plant response; settings: Flood, 250 g ai/ha; scale of 0 to 100 where 0 is no effect and 100 is complete control; 13 to 15 days
In short: as §2

[9] = system: barnyardgrass (Echinochloa crus-galli); test: Test C flooded paddy test plant response; settings: Flood, 250 g ai/ha; scale of 0 to 100 where 0 is no effect and 100 is complete control; 13 to 15 days
In short: as §2

rice (Oryza sativa) = test: Test C flooded paddy test plant response; settings: Flood, 250 g ai/ha; scale of 0 to 100 where 0 is no effect and 100 is complete control; 13 to 15 days
In short: as §2

[10] = system: blackgrass (Alopecurus myosuroides); test: Test B postemergence plant response
In short: (§3)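 Values are visual control ratings (0 to 100) recorded approximately 10 days after postemergence application to greenhouse-grown plants of 2 to 10 cm, one- to two-leaf stage, each judged against untreated controls.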

[11] = system: galium (catchweed bedstraw, Galium aparine); test: Test B postemergence plant response
In short: as §3

[12] = 125 g ai/ha, postemergence, 0 to 100 scale, 0 no effect, 100 complete control
[13] = Postemergence, 31 g ai/ha, 0 to 100 scale (0 no effect, 100 complete control)
[14] = 31 g ai/ha, Preemergence, 0 to 100 scale where 0 is no effect and 100 is complete control
[15] = Preemergence, 125 g ai/ha, 0 to 100 scale (0 no effect, 100 complete control)
[16] = 31 g ai/ha, Postemergence, 0 to 100 scale, 0 no effect, 100 complete control
[17] = Preemergence, 31 g ai/ha, 0 to 100 scale (0 no effect, 100 complete control)
[18] = Preemergence, 125 g ai/ha, 0 to 100 scale where 0 is no effect and 100 is complete control
[19] = 500 g ai/ha, postemergence, 0 to 100 scale, 0 no effect, 100 complete control
[20] = Preemergence, 500 g ai/ha, 0 to 100 scale where 0 is no effect and 100 is complete control

For Cc1cnc(Oc2ccccc2-c2cc(C(F)F)no2)nc1 [Compound 211], the “Plant response rating, Wheat” value [1, 12] was 0, the “Plant response rating, Wheat” value [1, 13] was 0 and the “Plant response rating, Kochia” value (kochia (Kochia scoparia); [14]) was 20. The “Plant response rating, Kochia” value (kochia (Kochia scoparia); [12]) was 90, the “Plant response rating, Kochia” value (kochia (Kochia scoparia); [13]) was 40 and the “Kochia plant response rating” value (kochia (Kochia scoparia); [15]) was 80. The “Plant response rating, Ryegrass, Italian” value [2, 14] was 0, the “Plant response rating, Ryegrass, Italian” value [2, 12] was 0 and the “Plant response rating, Ryegrass, Italian” value [2, 13] was 0. For the same molecule, the “Ryegrass, Italian plant response rating” value [2, 15] was 0, the “Plant response rating, Ragweed” value [3, 14] was 0 and the “Plant response rating, Ragweed” value [3, 12] was 30. The “Plant response rating, Ragweed” value [3, 13] was 0, the “Ragweed plant response rating” value [3, 15] was 30 and the “Plant response rating, Pigweed” value [4, 14] was 100. The “Plant response rating, Pigweed” value [4, 12] was 50, the “Plant response rating, Pigweed” value [4, 13] was 20 and the “Pigweed plant response rating” value [4, 15] was 100. For the same molecule, the “Plant response rating, Barnyardgrass” value [5, 14] was 10, the “Plant response rating, Barnyardgrass” value [5, 12] was 10 and the “Plant response rating, Barnyardgrass” value [5, 13] was 0. For the same molecule, the “Barnyardgrass plant response rating” value [5, 15] was 50, the “Plant response rating, Corn” value (corn (Zea mays); [12]) was 10 and the “Plant response rating, Corn” value (corn (Zea mays); [13]) was 0. The “Plant response rating, Foxtail, Giant” value [6, 14] was 10, the “Plant response rating, Foxtail, Giant” value [6, 12] was 50 and the “Plant response rating, Foxtail, Giant” value [6, 13] was 10. The “Foxtail, Giant plant response rating” value [6, 15] was 100, the “Sedge, Umbrella plant response rating” value [7] was 20 and the “Ducksalad plant response rating” value [8] was 70. For the same molecule, the “Barnyardgrass plant response rating” value [9] was 0, the “Rice plant response rating” value (rice (Oryza sativa)) was 0 and the “Plant response rating, Blackgrass” value [10, 12] was 50. The “Plant response rating, Blackgrass” value [10, 13] was 10, the “Plant response rating, Galium” value [11, 12] was 100 and the “Plant response rating, Galium” value [11, 13] was 60.

In the case of Cc1nc(-c2ccccc2Oc2ncc(Cl)cn2)co1 [Compound 70], the “Plant response rating, Wheat” value [1, 16] is reported as 0, the “Plant response rating, Wheat” value [1, 12] is reported as 0 and the “Plant response rating, Kochia” value (kochia (Kochia scoparia); [16]) is reported as 0. The “Plant response rating, Kochia” value (kochia (Kochia scoparia); [12]) was 0, the “Kochia plant response rating” value (kochia (Kochia scoparia); [17]) was 0 and the “Plant response rating, Kochia” value (kochia (Kochia scoparia); [18]) was 0. For the same molecule, the “Plant response rating, Ryegrass, Italian” value [2, 16] was 0, the “Plant response rating, Ryegrass, Italian” value [2, 12] was 0 and the “Ryegrass, Italian plant response rating” value [2, 17] was 0. For the same molecule, the “Plant response rating, Ryegrass, Italian” value [2, 18] was 0, the “Plant response rating, Ragweed” value [3, 16] was 0 and the “Plant response rating, Ragweed” value [3, 12] was 0. For the same molecule, the “Ragweed plant response rating” value [3, 17] was 0, the “Plant response rating, Ragweed” value [3, 18] was 0 and the “Plant response rating, Pigweed” value [4, 16] was 10. The “Plant response rating, Pigweed” value [4, 12] was 20, the “Pigweed plant response rating” value [4, 17] was 0 and the “Plant response rating, Pigweed” value [4, 18] was 0. For the same molecule, the “Plant response rating, Barnyardgrass” value [5, 16] was 0, the “Plant response rating, Barnyardgrass” value [5, 12] was 0 and the “Barnyardgrass plant response rating” value [5, 17] was 0. The “Plant response rating, Barnyardgrass” value [5, 18] was 0, the “Plant response rating, Corn” value (corn (Zea mays); [16]) was 0 and the “Plant response rating, Corn” value (corn (Zea mays); [12]) was 0. For the same molecule, the “Plant response rating, Foxtail, Giant” value [6, 16] was 0, the “Plant response rating, Foxtail, Giant” value [6, 12] was 0 and the “Foxtail, Giant plant response rating” value [6, 17] was 0. The “Plant response rating, Foxtail, Giant” value [6, 18] was 0, the “Sedge, Umbrella plant response rating” value [7] was 0 and the “Ducksalad plant response rating” value [8] was 0. The “Barnyardgrass plant response rating” value [9] was 0, the “Rice plant response rating” value (rice (Oryza sativa)) was 0 and the “Plant response rating, Blackgrass” value [10, 16] was 0. For the same molecule, the “Plant response rating, Blackgrass” value [10, 12] was 0, the “Plant response rating, Galium” value [11, 16] was 0 and the “Plant response rating, Galium” value [11, 12] was 0.

In the case of CC(=O)c1cc(-c2ccccc2Oc2ncc(Cl)cn2)no1 [Compound 215], the “Plant response rating, Wheat” value [1, 12] is reported as 0, the “Plant response rating, Wheat” value [1, 19] is reported as 20 and the “Plant response rating, Kochia” value (kochia (Kochia scoparia); [12]) is reported as 0. For the same molecule, the “Plant response rating, Kochia” value (kochia (Kochia scoparia); [19]) was 10, the “Kochia plant response rating” value (kochia (Kochia scoparia); [15]) was 0 and the “Plant response rating, Kochia” value (kochia (Kochia scoparia); [20]) was 0. The “Plant response rating, Ryegrass, Italian” value [2, 12] was 0, the “Plant response rating, Ryegrass, Italian” value [2, 19] was 50 and the “Ryegrass, Italian plant response rating” value [2, 15] was 0. The “Plant response rating, Ryegrass, Italian” value [2, 20] was 0, the “Plant response rating, Ragweed” value [3, 12] was 0 and the “Plant response rating, Ragweed” value [3, 19] was 20. The “Ragweed plant response rating” value [3, 15] was 0, the “Plant response rating, Ragweed” value [3, 20] was 0 and the “Plant response rating, Pigweed” value [4, 12] was 20. The “Plant response rating, Pigweed” value [4, 19] was 100, the “Pigweed plant response rating” value [4, 15] was 20 and the “Plant response rating, Pigweed” value [4, 20] was 90. For the same molecule, the “Plant response rating, Barnyardgrass” value [5, 12] was 20, the “Plant response rating, Barnyardgrass” value [5, 19] was 90 and the “Barnyardgrass plant response rating” value [5, 15] was 40. For the same molecule, the “Plant response rating, Barnyardgrass” value [5, 20] was 90, the “Plant response rating, Corn” value (corn (Zea mays); [12]) was 20 and the “Plant response rating, Corn” value (corn (Zea mays); [19]) was 40. The “Plant response rating, Foxtail, Giant” value [6, 12] was 20, the “Plant response rating, Foxtail, Giant” value [6, 19] was 80 and the “Foxtail, Giant plant response rating” value [6, 15] was 20. The “Plant response rating, Foxtail, Giant” value [6, 20] was 90, the “Sedge, Umbrella plant response rating” value [7] was 0 and the “Ducksalad plant response rating” value [8] was 0. For the same molecule, the “Barnyardgrass plant response rating” value [9] was 0, the “Rice plant response rating” value (rice (Oryza sativa)) was 0 and the “Plant response rating, Blackgrass” value [10, 12] was 0. For the same molecule, the “Plant response rating, Blackgrass” value [10, 19] was 40, the “Plant response rating, Galium” value [11, 12] was 20 and the “Plant response rating, Galium” value [11, 19] was 70.
